Counter-ions that a name gives are not always drawn. Like-named read-outs stand apart in the source and are kept apart here. Blank lines part the entries; values can stand above or below the compound they belong to.
Assays:
[1] = Solubility / saturation concentration of TMT-Na salts and salt mixtures in water; type: physicochemical; conditions: for solubility in water: temperature not given; for Solubility of the TMT-Na salt/-salt mixture / solubility: water; for solubility: read-out: saturation concentration of TMT-Na3 in water
Source text: That is, in each case, more than 2 hydrogen atoms of the TMT-H3 are replaced.

[2] = Titration curve of TMT-H3; type: physicochemical
Source text: In the sequence named, the jump are to be associated with the salts TMT-Na, TMT-Na2 and TMT-Na3.

[3] = Solubility / saturation concentration of TMT-Na salts and salt mixtures in water; type: physicochemical
[4] = Stability in storage of aqueous solutions (crystallization); type: physicochemical; conditions: in words
Experimental: Aqueous solutions of TMT-Na3 are commercially available and are used for separating heavy metal from the flue gas wash water of garbage incinerators, waste water in the mining industry and in galvanotechnical and chemical plants. The commercially available, aqueous TMT-NA3 solution has a concentration of 15% by weight (Publication TMT 15 of the Degussa company, 3/1986). The saturation concentration of TMT-Na3 in water is approximately 16% by weight at 0° C. and approximately 25% by weight at 20° C. […] Such a crystallization makes it considerably more difficult to handle the product. If heat-insulated or heated transport and storage containers were used, TMT-Na3 solutions with a higher concentration could be considered as a commercially supplied form of this product; however, this would make the product and its use more expensive.
The object of the present invention is to provide aqueous solutions of sodium salts of trimercapto-s-triazine which have a higher concentration of active substance than current commercially available solutions. Increasing the concentration makes possible a reduction in transportation and storage costs. The solutions should be stable in storage, that is, no crystallization of the active substance or of its salt should occur during storage. […]

[5] = disclosure of DE-AS 22 40 549; cited from earlier work

SMILES: Sc1nc(S)nc(S)n1 [TMT-H3, Trimercapto-s-triazine]
solubility in water (in words) ([1]; in words): practically insoluble in water
solubility in water [1]: less than 0.5 % by weight
first jump of the titration curve ([2]; associated with TMT-Na): around 7 pH
second jump of the titration curve ([2]; associated with TMT-Na2): around 10.5 pH
third jump of the titration curve ([2]; associated with TMT-Na3): around 12.5 pH

SMILES: Sc1nc(S)nc(S)n1 [TMT-Na2, disodium salt of trimercapto-s-triazine]
solubility in water (in words) ([1]; in words): unusually high water solubility
solubility relative to that of TMT-Na3 ([1]; in words, comparison with TMT-Na3): considerably above that of the readily soluble TMT-Na3

SMILES: Sc1nc(S)nc(S)n1.[Na].[Na].[Na] [TMT-Na3, trimercapto-s-triazine trisodium salt]
solubility of TMT-Na3 ([1]; 0° C.): approximately 0.78 mole TMT-Na3 per liter of H2 0
Solubility of the TMT-Na salt/-salt mixture ([1]; 0° C.): 0.78 mole TMT salt/1 H2 O
solubility of TMT-Na3 ([1]; 20° C.): approximately 1.37 mole TMT-Na3 per liter of H2 0
Solubility of the TMT-Na salt/-salt mixture ([1]; 20° C.): 1.37 mole TMT salt/1 H2 O
solubility in water (in words) ([1]; in words): good solubility
solubility ([1]; 0° C.): ~160 mg/mL
solubility ([1]; 20° C.): ~250 mg/mL
stability in storage (crystallization) [4]: crystallizes if the concentration is higher

Further lines, with some results ahead:

solubility in water (in words) ([3]; in words, disodium salt): extraordinarily high solubility in water
SMILES: Sc1nc(S)nc(S)n1 [TMT-Na2.6 H2 0, hexahydrate of trimercapto-s-triazine disodium salt]

precipitation from solution ([3]; less than 2 hydrogen atoms of trimercapto-s-triazine replaced by Na ions): precipitates
solubility in water (in words) ([1]; in words): slightly soluble in water
solubility in water [1]: approximately 3 % by weight
SMILES: Sc1nc(S)nc(S)n1 [TMT-Na, monosodium salt of trimercapto-s-triazine]
solubility in water [5]: approximately 3 % by weight
